Columns and labels:
[1] = tested on: caterpillars of the army worm (Spodoptera frugiperda); assay: Spodoptera frugiperda test (SPODFR spray treatment); format: in vivo; settings: for Kill rate after 7d in %: 100 g/ha, spray treatment
Method in brief: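 Compound formulated in acetone/DMF with alkylaryl polyglycol ether emulsifier, diluted in emulsifier-containing water and sprayed on maize leaf discs; after drying, discs infested with Spodoptera frugiperda caterpillars. Mortality (%) scored after a set period, 100% meaning all caterpillars killed.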

Heliothis virescens = Heliothis virescens test (eggs); format: in vivo
Procedure: (§1) Heliothis virescens Solvents: 1% of N-methylpyrrolidone (NMP) • 1% of diacetone alcohol Dye: brilliant sulphoflavin for staining the water To produce a suitable preparation of active compound, the active compound is mixed with the stated amounts of solvents and the concentrate is diluted with stained water to the desired concentration. The eggs (Heliothis virescens) are treated with an active compound preparation of the desired concentration. After the desired period of time, the activity in % is determined. 100% means that all animals have been killed; 0% means that none of the animals have been killed.

Myzus persicae = Myzus persicae test (ingestion of active compound preparation); format: in vivo
Procedure: Myzus persicae Test Solvents: 1% of N-methylpyrrolidone (NMP) • 1% of diacetone alcohol Dye: brilliant sulphoflavin for staining the water To produce a suitable preparation of active compound, the active compound is mixed with the stated amounts of solvents and the concentrate is diluted with stained water to the desired concentration. The Myzus persicae are provided with an active compound preparation of the desired concentration for ingestion. After the desired period of time, the activity in % is determined. 100% means that all aphids have been killed; 0% means that none of the aphids have been killed.

[2] = tested on: larvae of the mustard beetle (Phaedon cochleariae); assay: Phaedon test (sprayed Chinese cabbage discs); format: in vivo; settings: for Kill rate after 7d in %: 100 g/ha
Method in brief: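 Compound formulated in acetone/DMF with alkylaryl polyglycol ether emulsifier, diluted in emulsifier-containing water and sprayed onto Chinese cabbage (Brassica pekinensis) leaf discs. After drying, discs infested with Phaedon cochleariae larvae; % kill scored after set time (100% = all larvae dead, 0% = none).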

[3] = tested on: Diabrotica undecimpunctata; assay: Diabrotica undecimpunctata (DIABUN) test (eggs); format: in vivo
Procedure: as §1, with “Diabrotica undecimpunctata (DIABUN)” for “Heliothis virescens”, “(Diabrotica undecimpunctata)” for “(Heliothis virescens)”

Aedes aegypti = Aedes aegypti test (larvae); format: in vivo
Procedure: as §1, with “Aedes aegypti Test Solvents:” for “Heliothis virescens Solvents:”, “The larvae (Aedes aegypti)” for “The eggs (Heliothis virescens)”, “all of the larvae” for “all animals”, “the larvae” for “the animals”

[4] = tested on: caterpillars of the cotton bollworm (Heliothis armigera); assay: Heliothis armigera test (leaf dip); format: in vivo
Method in brief: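 Compound was formulated in dimethylformamide with alkylaryl polyglycol ether emulsifier and diluted in emulsifier-containing water. Soya bean leaves were dipped in the preparation and populated with Heliothis armigera caterpillars while still moist. Kill (%) was scored after the desired period.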

[5] = tested on: Spodoptera frugiperda larvae; assay: Spodoptera frugiperda test (treatment by watering); format: in vivo; settings: for Kill rate after 14d in %: 20 ppm, treatment by watering
Method in brief: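 Compound formulated in dimethylformamide with alkylaryl polyglycol ether emulsifier and diluted with water to the desired concentration. Maize plants are watered with the preparation, then infested with Spodoptera frugiperda larvae. After the set period, % larval kill is scored (100% = all killed, 0% = none).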

[6] = logP determination by HPLC (reversed-phase C18), EEC Directive 79/831 Annex V.A8; format: physicochemical; settings: HPLC reversed-phase C18, 43° C., acidic range pH 2.7
[7] = tested on: caterpillars of the army worm (Spodoptera exigua); assay: Spodoptera exigua test (leaf dip); format: in vivo; settings: for Kill rate after 7d in %: 4 ppm
Method in brief: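 Compound in DMF with alkylaryl polyglycol ether emulsifier, diluted in water to test concentration; cabbage leaves dipped and infested with Spodoptera exigua caterpillars while still moist. Kill (%) scored after a set period, 100% meaning all caterpillars dead.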

[8] = tested on: green peach aphid (Myzus persicae); assay: Myzus test (MYZUPE spray treatment); format: in vivo; settings: for Kill rate after 5d in %: 100 g/ha, spray treatment
Method in brief: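 Chinese cabbage leaf discs infested with all aphid stages sprayed with compound in acetone/DMF with alkylaryl polyglycol ether emulsifier, diluted in emulsifier-containing water to the desired concentration. After the set period, percent activity scored as aphids killed (100% = all dead, 0% = none).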

[9] = tested on: caterpillars of the diamondback moth (Plutella xylostella); assay: Plutella test (leaf dip); format: in vivo
Method in brief: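 Cabbage (Brassica oleracea) leaves dipped in compound formulated in dimethylformamide/alkylaryl polyglycol ether emulsifier diluted with emulsifier-containing water. Leaves infested with Plutella xylostella caterpillars while still moist. After a set period, kill % scored (100% = all caterpillars dead, 0% = none).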

[10] = tested on: green peach aphid (Myzus persicae); assay: Myzus persicae test; systemic treatment; format: in vivo
Procedure: Myzus persicae Test; Systemic Treatment Solvent: 7 parts by weight of dimethylformamide Emulsifier: 2 parts by weight of alkylaryl polyglycol ether To produce a suitable preparation of active compound, 1 part by weight of active compound is mixed with the stated amounts of solvent and emulsifier and the concentrate is diluted with water to the desired concentration. The active compound preparation is mixed with water. The stated concentration refers to the amount of active compound per volume unit of water (mg/l=ppm). The treated water is filled into vessels with a pea plant (Pisum sativum) which is then infected with the green peach aphid (Myzus persicae). After the desired period of time, the kill in % is determined. 100% means that all aphids have been killed; 0% means that none of the aphids have been killed.

[11] = tested on: Spodoptera exigua, resistant strain; assay: Spodoptera exigua test; resistant strain; format: in vivo
Method in brief: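 Cabbage leaves dipped in compound preparation (DMF solvent, alkylaryl polyglycol ether emulsifier, diluted in emulsifier-containing water) and infested with caterpillars while still moist. After the set period, kill scored in %: 100% all caterpillars dead, 0% none dead.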

[12] = tested on: cotton aphid (Aphis gossypii); assay: Aphis gossypii test (leaf dip); format: in vivo; settings: for Kill rate after 6d in %: 100 ppm
Procedure: Aphis gossypii Test Solvent: 7 parts by weight of dimethylformamide Emulsifier: 2 parts by weight of alkylaryl polyglycol ether To produce a suitable preparation of active compound, 1 part by weight of active compound is mixed with the stated amounts of solvent and emulsifier and the concentrate is diluted with emulsifier-containing water to the desired concentration. Cotton leaves (Gossypium hirsutum) which are heavily infested by the cotton aphid (Aphis gossypii) are treated by being dipped into the active compound preparation of the desired concentration. After the desired period of time, the kill in % is determined. 100% means that all aphids have been killed; 0% means that none of the aphids have been killed.

O=C(Nc1c(Cl)cc(Cl)cc1C1=NOCCO1)c1cc(Br)nn1-c1ncccc1Cl [Example I-1-8]
95%: Kill rate after 14d in % [5]
100%: Kill rate after 7d in % [1] | Kill rate after 6-7d in % (Heliothis virescens; 100 ppm, 6-7 d, eggs) | Kill rate after 6-7d in % (Myzus persicae; 30 ppm, 6-7 d, ingestion) | Kill rate after 7d in % [2] | Kill rate after 2-5d in % ([3]; 300 ppm, 2-5 d, eggs) | Kill rate after 2-4d in % (Aedes aegypti; 30 ppm, 2-4 d, larvae) | Kill rate after 7d in % ([4]; 20 ppm)
good activity: activity in the Spodoptera frugiperda test, spray treatment (in words) [1] | activity in the Heliothis virescens test (in words) (Heliothis virescens) | activity in the Myzus persicae test (in words) (Myzus persicae) | activity in the Phaedon test (in words) [2] | activity in the Diabrotica undecimpunctata test (in words) [3] | activity in the Aedes aegypti test (in words) (Aedes aegypti) | activity in the Heliothis armigera test (in words) [4] | activity in the Spodoptera frugiperda test, watering (in words) [5]
3.09: logP [6]

Cc1cc(Cl)cc(C2=NOCCN2)c1NC(=O)c1cc(Br)nn1-c1ncccc1Cl [Example I-1-19]
80%: Kill rate after 7d in % [7] | Kill rate after 6d in % [12]
2.25: logP [6]
100%: Kill rate after 7d in % [1] | Kill rate after 7d in % [2] | Kill rate after 7d in % ([9]; 0.8 ppm) | Kill rate after 7d in % ([4]; 4 ppm) | Kill rate after 7d in % ([11]; 20 ppm, 7 d, resistant strain)
95%: Kill rate after 14d in % [5]
90%: Kill rate after 5d in % [8] | Kill rate after 6d in % ([10]; 20 ppm, 6 d, systemic treatment)
good activity: activity in the Spodoptera exigua test (in words) [7] | activity in the Spodoptera frugiperda test, spray treatment (in words) [1] | activity in the Phaedon test (in words) [2] | activity in the Myzus test, spray treatment (in words) [8] | activity in the Plutella test (in words) [9] | activity in the Heliothis armigera test (in words) [4] | activity in the Myzus persicae test, systemic treatment (in words) [10] | activity in the Spodoptera exigua test, resistant strain (in words) [11] | activity in the Aphis gossypii test (in words) [12]

Cc1cc(Cl)cc(C2=NOCCN2)c1NC(=O)c1cc(Cl)nn1-c1ncccc1Cl [Example I-1-20]
good activity: activity in the Spodoptera exigua test (in words) [7] | activity in the Spodoptera frugiperda test, spray treatment (in words) [1] | activity in the Phaedon test (in words) [2] | activity in the Myzus test, spray treatment (in words) [8] | activity in the Plutella test (in words) [9] | activity in the Heliothis armigera test (in words) [4] | activity in the Aphis gossypii test (in words) [12]
80%: Kill rate after 6d in % [12]
2.25: logP [6]
95%: Kill rate after 14d in % [5]
100%: Kill rate after 7d in % [7] | Kill rate after 7d in % [1] | Kill rate after 7d in % [2] | Kill rate after 5d in % [8] | Kill rate after 7d in % ([9]; 4 ppm) | Kill rate after 7d in % ([4]; 4 ppm)

Reference: patent US8062995B2, “Dioxazine-substituted arylamides” (Bayer CropScience AG, priority 2005, dated 2011)
